In patent US10689362B2, “Quinoxaline compounds as type III receptor tyrosine kinase inhibitors” (Development Center for Biotechnology, priority 2016, dated 2020):

Experiments:
c-KIT kinase = c-KIT kinase (Homo sapiens (Human), UniProt P10721); test: c-KIT kinase assay (radiometric); assay type: biochemical
In short: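 Recombinant c-Kit (20 ng) with 2 μg Poly-(Glu4:Tyr1) in MOPS pH 7.0 buffer with MgCl2/MnCl2, 10 μM ATP plus [^33P]-ATP, 4% DMSO final, 60 min at 30° C. Stopped with phosphoric acid, filter-captured and scintillation counted; IC50 from curve fit.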

[1] = test system: CSF-1-dependent M-NFS-60 mouse myeloid leukemia cell; test: M-NFS-60 cell proliferation assay (CellTiter-96); assay type: cell-based; details: Cytotoxicity, M-NFS-60 cells, 72 hours
In short: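 Growth inhibition was measured as absorbance at 490 nm after 4 h with CellTiter 96 AQueous One reagent. Beforehand, M-NFS-60 cells (2000/well, CSF-1-dependent) were treated with a compound dilution series for 72 h following overnight plating at 37 °C, 5% CO2.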

FLT3 kinase = FLT3 kinase (Homo sapiens (Human), UniProt P36888); test: FLT3 kinase assay (radiometric); assay type: biochemical; details: bound
Sequence of FLT3 kinase (P36888 27-993): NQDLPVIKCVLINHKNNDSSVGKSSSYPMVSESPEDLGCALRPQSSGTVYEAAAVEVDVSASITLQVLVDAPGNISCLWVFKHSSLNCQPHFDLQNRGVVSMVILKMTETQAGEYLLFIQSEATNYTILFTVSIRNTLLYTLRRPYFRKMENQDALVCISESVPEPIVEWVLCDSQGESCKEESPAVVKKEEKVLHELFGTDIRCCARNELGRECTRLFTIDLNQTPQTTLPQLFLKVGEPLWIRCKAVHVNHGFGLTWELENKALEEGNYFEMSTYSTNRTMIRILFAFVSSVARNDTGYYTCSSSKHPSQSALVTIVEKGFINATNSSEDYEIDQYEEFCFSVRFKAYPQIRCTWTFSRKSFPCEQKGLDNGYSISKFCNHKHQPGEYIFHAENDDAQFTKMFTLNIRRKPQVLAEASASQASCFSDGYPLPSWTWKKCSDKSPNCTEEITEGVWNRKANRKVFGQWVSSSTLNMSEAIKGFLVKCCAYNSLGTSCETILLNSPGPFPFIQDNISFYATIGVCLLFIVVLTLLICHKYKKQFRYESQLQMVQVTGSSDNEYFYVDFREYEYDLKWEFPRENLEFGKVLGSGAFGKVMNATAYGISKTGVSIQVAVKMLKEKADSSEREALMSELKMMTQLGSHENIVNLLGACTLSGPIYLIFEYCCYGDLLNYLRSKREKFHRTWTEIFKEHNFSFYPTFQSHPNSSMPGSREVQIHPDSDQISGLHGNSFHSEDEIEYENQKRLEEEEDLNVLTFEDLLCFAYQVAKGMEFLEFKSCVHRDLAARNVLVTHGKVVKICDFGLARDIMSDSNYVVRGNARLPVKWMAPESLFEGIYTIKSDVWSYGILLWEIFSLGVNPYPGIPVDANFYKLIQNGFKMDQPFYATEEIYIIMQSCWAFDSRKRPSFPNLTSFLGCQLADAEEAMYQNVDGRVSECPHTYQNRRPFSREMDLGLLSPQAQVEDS
In short: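 Recombinant FLT3 (5 ng) phosphorylating poly(Glu4:Tyr1) (2 μg) with 10 μM ATP plus [^33P]-ATP in MOPS pH 7.0 buffer, 4% DMSO final, 60 min at 30° C. Reaction stopped with phosphoric acid, filter-captured and scintillation-counted; IC50 derived from dose-response.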

CSF-1R kinase = CSF-1R kinase (Homo sapiens (Human), UniProt P07333); test: CSF-1R kinase assay (AlphaScreen); assay type: biochemical; details: class symbol
Sequence of CSF-1R kinase (P07333 20-972): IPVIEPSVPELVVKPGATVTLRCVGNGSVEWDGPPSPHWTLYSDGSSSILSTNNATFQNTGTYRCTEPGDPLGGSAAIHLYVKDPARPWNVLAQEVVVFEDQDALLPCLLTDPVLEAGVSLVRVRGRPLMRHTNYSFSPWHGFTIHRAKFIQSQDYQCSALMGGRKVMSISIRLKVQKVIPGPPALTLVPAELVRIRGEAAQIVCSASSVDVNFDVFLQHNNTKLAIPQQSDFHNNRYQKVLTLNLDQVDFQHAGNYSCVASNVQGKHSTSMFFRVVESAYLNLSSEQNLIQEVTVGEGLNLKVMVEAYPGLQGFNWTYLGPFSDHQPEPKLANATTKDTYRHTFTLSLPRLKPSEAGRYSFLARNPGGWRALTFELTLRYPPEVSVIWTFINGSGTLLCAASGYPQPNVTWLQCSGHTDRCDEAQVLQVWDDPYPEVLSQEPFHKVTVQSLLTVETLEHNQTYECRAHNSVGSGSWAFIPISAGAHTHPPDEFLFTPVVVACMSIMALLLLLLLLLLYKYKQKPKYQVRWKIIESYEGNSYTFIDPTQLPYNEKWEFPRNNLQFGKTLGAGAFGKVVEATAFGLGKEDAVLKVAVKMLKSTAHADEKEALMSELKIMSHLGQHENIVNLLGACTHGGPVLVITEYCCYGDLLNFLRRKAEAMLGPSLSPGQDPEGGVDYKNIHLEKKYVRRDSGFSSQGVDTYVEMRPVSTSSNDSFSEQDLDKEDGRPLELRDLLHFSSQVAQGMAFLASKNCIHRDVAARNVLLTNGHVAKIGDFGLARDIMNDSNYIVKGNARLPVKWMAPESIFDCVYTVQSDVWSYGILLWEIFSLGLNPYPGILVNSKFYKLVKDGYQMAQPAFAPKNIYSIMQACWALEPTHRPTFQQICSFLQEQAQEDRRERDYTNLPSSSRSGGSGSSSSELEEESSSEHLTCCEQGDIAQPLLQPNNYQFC
Protocol: Inhibition of CSF-1R kinase activity by a test compound disclosed herein was estimated by AlphaScreen (PerkinElmer). […] Reactions were incubated at 30° C. for 45 min and stopped by adding 5 μL of 50 mM EDTA. Analysis of resulting product using an AlphaScreen kit, and counted with Enspire Alpha (PerkinElmer). […] The IC50 values of quinoxaline compounds of this invention against CSF-1R kinase were determined using the GraphPad Prism 5 software.

[2] = test system: osteoclast precursors (osteoclast differentiation); test: Osteoclast tartrate-resistant acid phosphatase assay; assay type: cell-based; details: 168 h, at 1 μM treatment, 7 days, RANKL and M-CSF, read-out: inhibition activity against osteoclast differentiation
Protocol: A serial dilution of test compound was dispensed into a 96-well black clear bottom plate. Compound was diluted by the addition of DMEM media supplemented with 10% characterized fetal bovine serum. Diluted compound was transferred to a 96-well black clear bottom plate. Three thousand osteoclast precursors (Lonza, Walkersville, Md.) were added per well in growth medium containing Receptor Activator of Nuclear Factor Kappa-beta ligand (RANKL) and M-CSF. […] At the end of the incubation period, 50 μL of supernatant from each well was transferred to a clear 96-well plate. Tartrate-resistant acid phosphatase activity in the supernatant samples was determined using an acid phosphatase assay kit (Sigma, St. Louis, Mo.). Absorbance was measured at 550 nm using a plate reader. […] The Inhibition activity against osteoclast differentiation for each compound at 1 μM treatment in duplicate was measured.

PDGFRβ kinase = PDGFRβ kinase (Homo sapiens (Human), UniProt P09619); test: PDGFRβ kinase assay (radiometric); assay type: biochemical
Sequence of PDGFRβ kinase (P09619 33-1106): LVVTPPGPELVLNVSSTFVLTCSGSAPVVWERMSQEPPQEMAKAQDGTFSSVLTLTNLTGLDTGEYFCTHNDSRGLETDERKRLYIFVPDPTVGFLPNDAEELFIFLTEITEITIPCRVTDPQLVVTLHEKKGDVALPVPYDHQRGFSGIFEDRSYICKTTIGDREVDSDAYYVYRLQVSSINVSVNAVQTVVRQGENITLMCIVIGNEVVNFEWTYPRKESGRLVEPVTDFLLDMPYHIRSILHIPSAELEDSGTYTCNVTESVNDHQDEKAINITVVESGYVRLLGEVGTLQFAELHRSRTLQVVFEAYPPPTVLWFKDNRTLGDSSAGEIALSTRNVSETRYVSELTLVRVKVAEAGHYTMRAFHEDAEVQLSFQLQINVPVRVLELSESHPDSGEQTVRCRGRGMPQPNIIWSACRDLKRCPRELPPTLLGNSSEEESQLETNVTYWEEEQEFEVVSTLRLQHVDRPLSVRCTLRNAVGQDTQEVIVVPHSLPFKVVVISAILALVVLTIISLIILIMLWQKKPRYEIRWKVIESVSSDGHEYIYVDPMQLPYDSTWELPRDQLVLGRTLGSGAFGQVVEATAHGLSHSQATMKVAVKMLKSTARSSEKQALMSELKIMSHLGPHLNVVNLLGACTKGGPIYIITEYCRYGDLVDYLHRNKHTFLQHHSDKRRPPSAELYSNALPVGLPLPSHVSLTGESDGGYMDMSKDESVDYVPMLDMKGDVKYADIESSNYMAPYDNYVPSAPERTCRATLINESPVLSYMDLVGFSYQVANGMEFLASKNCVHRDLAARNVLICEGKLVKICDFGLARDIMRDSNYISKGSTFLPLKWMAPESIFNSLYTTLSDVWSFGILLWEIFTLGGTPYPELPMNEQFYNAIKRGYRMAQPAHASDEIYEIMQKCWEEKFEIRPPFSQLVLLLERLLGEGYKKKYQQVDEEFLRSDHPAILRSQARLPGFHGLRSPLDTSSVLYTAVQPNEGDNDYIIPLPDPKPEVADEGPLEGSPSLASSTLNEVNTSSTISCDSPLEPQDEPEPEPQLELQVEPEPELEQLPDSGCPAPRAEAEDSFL
In short: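 Radiometric assay: recombinant PDGFRβ with poly(Glu4:Tyr1) in MOPS pH 7.0 buffer containing Mg2+/Mn2+, 10 μM ATP plus [33P]-ATP, and compound at 4% DMSO final. Incubated 60 min at 30° C, stopped with phosphoric acid, filter-captured and scintillation-counted. IC50 from curve fitting.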

[3] = test system: Kasumi-1 human acute myeloid leukemia cell with c-KIT N822K activating mutation; test: Kasumi-1 cell proliferation assay (CellTiter-96); assay type: cell-based; details: Cytotoxicity, Kasumi-1 cells, 72 hours
In short: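 After 72 h of treatment with a compound dilution series, growth of c-KIT N822K-driven Kasumi-1 cells (64000 per well, plated the day before) was read as 490 nm absorbance. This followed a 4 h incubation with CellTiter96 AQueous One reagent.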

[4] = test system: THP-1 human acute monocytic leukemia cell harboring NRAS G12D mutation; test: THP-1 cell proliferation assay (counter screen, CellTiter-96); assay type: cell-based; details: Cytotoxicity, THP-1 cells (counter screen), 72 hours
In short: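 Growth inhibition read as 490 nm absorbance after 4 h with CellTiter96 AQueous One reagent, following 72 h compound exposure at rising concentrations. THP-1 (NRAS G12D) cells plated at 5000 per well and left overnight at 37 °C, 5% CO2 before dosing.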

[5] = test system: MV4-11 human acute myeloid leukemia cell with FLT3-ITD mutation; test: MV4-11 cell proliferation assay (CellTiter-96); assay type: cell-based; details: Cytotoxicity, MV4-11 cells, 72 hours
In short: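 Growth inhibition read as absorbance at 490 nm after 4 hours with CellTiter96 AQueous One reagent. Before that, FLT3-ITD-dependent MV4-11 cells (6500 cells/well, overnight at 37° C., 5% CO2) received a rising compound concentration series for 72 hours.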

Sequence of c-KIT kinase (P10721 26-976): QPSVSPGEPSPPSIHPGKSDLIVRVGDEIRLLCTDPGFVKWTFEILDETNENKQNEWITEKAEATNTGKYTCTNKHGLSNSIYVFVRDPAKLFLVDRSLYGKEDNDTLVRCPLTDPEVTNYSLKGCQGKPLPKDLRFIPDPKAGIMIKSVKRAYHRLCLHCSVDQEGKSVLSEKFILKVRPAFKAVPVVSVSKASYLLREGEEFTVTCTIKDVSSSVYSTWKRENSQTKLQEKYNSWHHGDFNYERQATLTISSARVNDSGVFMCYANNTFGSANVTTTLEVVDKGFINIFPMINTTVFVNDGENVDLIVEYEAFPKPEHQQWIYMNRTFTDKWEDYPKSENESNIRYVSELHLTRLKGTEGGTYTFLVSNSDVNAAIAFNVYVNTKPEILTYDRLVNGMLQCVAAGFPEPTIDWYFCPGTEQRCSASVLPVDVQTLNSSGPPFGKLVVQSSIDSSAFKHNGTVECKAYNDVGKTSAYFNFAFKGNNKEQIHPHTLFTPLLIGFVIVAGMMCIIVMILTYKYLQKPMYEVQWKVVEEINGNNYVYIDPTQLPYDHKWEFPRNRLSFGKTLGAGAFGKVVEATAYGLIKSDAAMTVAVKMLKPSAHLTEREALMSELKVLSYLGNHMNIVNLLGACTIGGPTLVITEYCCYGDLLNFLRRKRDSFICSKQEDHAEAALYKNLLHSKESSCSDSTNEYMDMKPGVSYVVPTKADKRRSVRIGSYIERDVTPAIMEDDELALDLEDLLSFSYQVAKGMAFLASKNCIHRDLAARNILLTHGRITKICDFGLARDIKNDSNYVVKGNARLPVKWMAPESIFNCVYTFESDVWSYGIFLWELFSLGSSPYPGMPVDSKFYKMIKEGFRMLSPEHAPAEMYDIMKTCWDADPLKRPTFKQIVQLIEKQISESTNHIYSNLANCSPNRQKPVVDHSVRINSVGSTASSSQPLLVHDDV

SMILES	IC50 (c-KIT kinase; class symbol)	IC50 [1]	IC50 (FLT3 kinase)	IC50 (CSF-1R kinase)	inhibition at 1 µM [2]	IC50 (PDGFRβ kinase; bound)	IC50 [3]	IC50 [4]	IC50 [5]	IC50 (c-KIT kinase; bound)	IC50 (PDGFRβ kinase; class symbol)
COc1cc(Nc2ccc3ncc(C4=CCOCC4)nc3c2C#N)ccc1OCc1ccc(C)nc1 [Example 113, 3-(3,6-dihydro-2H-pyran-4-yl)-6-((3-methoxy-4-((6-methylpyridin-3-yl)methoxy)phenyl)amino)quinoxaline-5-carbonitrile]	< 100 nM	< 300 nM	> 1000 nM	< 100 nM	> 50%	> 1000 nM	300 to 1000 nM	> 10000 nM	1000 to 10000 nM	–	–
COc1cc(Nc2ccc3ncc(N4CC(C)(OC)C4)nc3c2C#N)ccc1OCc1ccc(C)nc1 [Example 138, 3-(3-methoxy-3-methylazetidin-1-yl)-6-((3-methoxy-4-((6-methyl-pyridin-3-yl)methoxy)phenyl)amino)quinoxaline-5-carbonitrile]	< 100 nM	< 300 nM	> 1000 nM	< 100 nM	> 50%	> 1000 nM	< 300 nM	> 10000 nM	1000 to 10000 nM	–	–
COc1cc(Nc2ccc3ncc(N4CCOCC4)nc3c2C#N)ccc1OCc1ccc(C#N)cc1 [Example 64, 6-((4-((4-cyanobenzyl)oxy)-3-methoxyphenyl)amino)-3-morpholinoquinoxaline-5-carbonitrile]	< 100 nM	< 300 nM	> 1000 nM	< 100 nM	> 50%	> 1000 nM	300 to 1000 nM	> 10000 nM	1000 to 10000 nM	–	–
CCOc1ccc(COc2ccc(Nc3ccc4ncc(N5CCOCC5)nc4c3C#N)cc2OC)cn1 [Example 112, 6-((4-((6-ethoxypyridin-3-yl)methoxy)-3-methoxyphenyl)amino)-3-morpholinoquinoxaline-5-carbonitrile]	< 100 nM	< 300 nM	> 1000 nM	< 100 nM	> 50%	> 1000 nM	< 300 nM	> 10000 nM	1000 to 10000 nM	–	–
COc1ccc(COc2ccc(Nc3ccc4ncc(C(C)C)nc4c3C#N)cc2OC)cc1 [Example 109, 3-isopropyl-6-((3-methoxy-4-((4-methoxybenzyl)oxy)phenyl)amino)quinoxaline-5-carbonitrile]	–	1000 to 10000 nM	> 1000 nM	< 100 nM	> 50%	> 1000 nM	1000 to 10000 nM	> 10000 nM	> 10000 nM	> 1000 nM	–
COc1ccc(COc2ccc(Nc3ccc4ncc(N5CCN(C(C)C)CC5)nc4c3C#N)cc2OC)cc1 [Example 80, 3-(4-isopropylpiperazin-1-yl)-6-((3-methoxy-4-((4-methoxybenzyl)oxy)phenyl)amino)quinoxaline-5-carbonitrile]	< 100 nM	< 300 nM	> 1000 nM	< 100 nM	> 50%	> 1000 nM	< 300 nM	1000 to 10000 nM	1000 to 10000 nM	–	–
CCOc1ccc(COc2ccc(Nc3ccc4ncc(N5CCOCC5)nc4c3C#N)cc2OC)cc1 [Example 35, 6-((4-((4-ethoxybenzyl)oxy)-3-methoxyphenyl)amino)-3-morpholinoquinoxaline-5-carbonitrile]	< 100 nM	< 300 nM	> 1000 nM	< 100 nM	> 50%	–	< 300 nM	> 10000 nM	1000 to 10000 nM	–	300 to 1000 nM
CCc1ccc(COc2ccc(Nc3ccc4ncc(N5CCOCC5)nc4c3C#N)cc2OC)cc1 [Example 33, 6-((4-((4-ethylbenzyl)oxy)-3-methoxyphenyl)amino)-3-morpholinoquinoxaline-5-carbonitrile]	< 100 nM	< 300 nM	> 1000 nM	< 100 nM	> 50%	–	< 300 nM	> 10000 nM	1000 to 10000 nM	–	100 to 300 nM
COc1cc(Nc2ccc3ncc(N4CCOCC4)nc3c2C#N)ccc1OCc1cnn(C)c1 [Example 105, 6-((3-methoxy-4-((1-methyl-1H-pyrazol-4-yl)methoxy)phenyl)amino)-3-morpholinoquinoxaline-5-carbonitrile]	< 100 nM	< 300 nM	> 1000 nM	< 100 nM	> 50%	> 1000 nM	300 to 1000 nM	> 10000 nM	1000 to 10000 nM	–	–
COc1ccc(COc2ccc(Nc3ccc4ncc(N5CCNCC5)nc4c3C#N)cc2OC)cc1 [Example 90, 6-((3-methoxy-4-((4-methoxybenzyl)oxy)phenyl)amino)-3-(piperazin-1-yl)quinoxaline-5-carbonitrile]	< 100 nM	< 300 nM	> 1000 nM	< 100 nM	> 50%	> 1000 nM	300 to 1000 nM	> 10000 nM	> 10000 nM	–	–
COc1ccc(COc2ccc(Nc3ccc4ncc(NCCN5CCOCC5)nc4c3C#N)cc2OC)cc1 [Example 76, 6-((3-methoxy-4-((4-methoxybenzyl)oxy)phenyl)amino)-3-((2-morpholinoethyl)amino)quinoxaline-5-carbonitrile]	300 to 1000 nM	< 300 nM	> 1000 nM	< 100 nM	> 50%	> 1000 nM	1000 to 10000 nM	> 10000 nM	1000 to 10000 nM	–	–
COc1cc(Nc2ccc3ncc(N4CC(N(C)C)C4)nc3c2C#N)ccc1OCc1ccc(C)nc1 [Example 136, 3-(3-(dimethylamino)azetidin-1-yl)-6-((3-methoxy-4-((6-methylpyridin-3-yl)methoxy)phenyl)amino)quinoxaline-5-carbonitrile]	< 100 nM	300 to 1000 nM	> 1000 nM	< 100 nM	> 50%	> 1000 nM	1000 to 10000 nM	> 10000 nM	1000 to 10000 nM	–	–
CCc1ccc(COc2ccc(Nc3ccc4ncc(N5CCOCC5)nc4c3C#N)cc2OC)cn1 [Example 101, 6-((4-((6-ethylpyridin-3-yl)methoxy)-3-methoxyphenyl)amino)-3-morpholinoquinoxaline-5-carbonitrile]	< 100 nM	< 300 nM	> 1000 nM	< 100 nM	> 50%	> 1000 nM	< 300 nM	> 10000 nM	1000 to 10000 nM	–	–
COc1cc(Nc2ccc3ncc(N4CCOCC4)nc3c2C(N)=O)ccc1OCc1ccc(C)nc1 [Example 135, 6-((3-methoxy-4-((6-methylpyridin-3-yl)methoxy)phenyl)amino)-3-morpholinoquinoxaline-5-carboxamide]	< 100 nM	< 300 nM	> 1000 nM	< 100 nM	> 50%	> 1000 nM	< 300 nM	> 10000 nM	1000 to 10000 nM	–	–
